Legend:
[1] = target: human tyrosine kinase 2 (TYK2), recombinant catalytic domain (Homo sapiens (Human), UniProt P29597); test: LanthaScreen TR-FRET enzymatic assay, TYK2; assay type: biochemical; conditions: TR-FRET, 1 mM ATP, GFP-STAT1 substrate; read-out: Inhibitory Activity IC50 TYK2
Method in brief: (§1)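 Insect-cell-expressed catalytic domains (JAK1 aa 866-1154, 440 ng/mL; JAK2 aa 808-1132, 11 ng/mL; JAK3 aa 781-1124, 400 ng/mL; TYK2 aa 833-1187, 200 ng/mL) preincubated 15 min with compound, then reacted 1 h at room temperature with 100 nM GFP-STAT1 and 1 mM ATP. pTyr701 detected by TR-FRET (terbium antibody); IC50 from 10-dose sigmoid fits.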

[2] = test system: human tyrosine kinase 2 (TYK2), recombinant catalytic domain; test: LanthaScreen TR-FRET enzymatic assay, TYK2; assay type: biochemical; conditions: ratio of IC50 against TYK2 over IC50 against JAK1
Method in brief: as §1

Chain of human tyrosine kinase 2 (TYK2), recombinant catalytic domain (Homo sapiens (Human), UniProt P29597) (P29597 833-1187): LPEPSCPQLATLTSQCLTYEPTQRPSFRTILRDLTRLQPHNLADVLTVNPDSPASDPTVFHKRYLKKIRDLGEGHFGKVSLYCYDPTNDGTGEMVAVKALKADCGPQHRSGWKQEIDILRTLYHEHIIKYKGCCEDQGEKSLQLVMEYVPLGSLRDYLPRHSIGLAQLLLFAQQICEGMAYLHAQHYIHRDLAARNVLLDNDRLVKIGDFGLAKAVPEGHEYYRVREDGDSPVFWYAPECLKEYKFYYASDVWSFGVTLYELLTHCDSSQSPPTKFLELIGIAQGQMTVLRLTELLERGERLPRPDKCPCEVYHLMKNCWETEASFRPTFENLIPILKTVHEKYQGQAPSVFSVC

**Q.** What does the source list for `O=C(Nc1cn2c(-c3ccc(CN4CCS(=O)(=O)CC4)cc3F)cccc2n1)C1CC1` [Compound 14]?
**A.** IC50 [1]: 1000 to 5000 nM; Selectivity TYK2/JAK1 [2]: A′ (A′ represents a ratio of greater than 8)

From patent publication US10730875B2, “Substituted imidazo[1,2-A]pyridin-2-ylamine compounds, and pharmaceutical compositions and methods of use thereof” (JN Therapeutics, priority 2015, dated 2020)
